Test results: patent publication US6036941A, “Fluorogenic substrates for diagnosis and photodynamic treatment of tumors” (Consiglio Nazionale Delle Ricerche, priority 1995, dated 2000)

Columns and labels:
[1] = test system: normal fibroblast line and sarcoma-derived cell line of Galliera rats; assay: Intracellular drug accumulation, normal fibroblasts versus sarcoma-derived cells; assay type: cell-based, rat
Description: A comparison of intracellular drug accumulation was made between normal and tumour cells. As a model, a normal fibroblast line from embryos (6-10 days) of Galliera strain rats, and a stabilised cell line derived from sarcoma spontaneously growing in syngeneic Galliera rats, were used. After incubation with Rose Bengal acetate at a concentration of 5×10^-6 M for 2 hours, a ratio of intracellular photosensitizer concentration of about 16 was measured between normal and transformed cells, in terms of fluorescence intensity at 580 nm. The ratio of the esterase activity in the two cell lines was found less than the ratio shown by the photosensitizer: this can be explained by the fact that the Rose Bengal produced by the enzyme activity is a polar compound. It must be considered that in this form Rose Bengal requires an active transport mechanism to be released (E. Prosperi, A. C. Croce et al. Cytometry, 7, 70-75, 1986), and that the tumour cells are characterised by an impaired metabolic condition (J. Szollosi, P. Kertai et al. J. Histochem. Cytochem. 29, 503-510, 1982), that enhances the photosensitizer accumulation.
The same cell lines, treated with the most commonly used photosensitizer, Photofrin®, at the concentration of 2×10^-5 M for a time of 2 hours yielded a ratio value of about 8 (FIG. 6).

rat glioma (C6) cells [2] = assay: Cellular vitality tests (trypan blue and fluorescein diacetate methods); assay type: cell-based; conditions: incubation for 4 h at concentrations up to 1×10^-4 M, no irradiation
Excerpt: The hydrophobicity of the intracellular environment would therefore seem to create the structural condition that favours the action of the enzyme. […] The finding relative to Rose Bengal agrees with the literature (R. P. G. Feenstra and S. C. G. Tseng, Ophthalmology, 99 605, 1992).

rat glioma (C6) cells [3] = assay: Intracellular accumulation and hydrolysis kinetics in C6 cell cultures; assay type: cell-based
Description: Evaluations of the kinetics of intracellular accumulation of Rose Bengal acetate were performed on cultures of an established cell line of rat glioma (C6) which grows as a monolayer. This cell line is widely used for pharmaco-kinetic studies of fluorescent substances with photosensitisation activity by virtue of its rapid proliferation activity and the possibility of modifying the physiological activities of the cells.
It is particularly important that, principally in short-term treatments, a continuous increase of intracellular Rose Bengal is recorded in the cells treated with the acetylated species, even when the cells are transferred into a medium devoid of this substance. This can easily be interpreted in terms of the balance between the processes of incorporation and hydrolysis. Since the process of incorporation is rapider than that of hydrolysis, inside the cells an accumulation is created of hydrolysable substance on which the enzyme can continue to effect its action through time.
Further, it is interesting to note that the kinetics of hydrolysis of Rose Bengal acetate is accelerated by the cellular environment: the Km passes from about 10^-3 M in conditions of hydrolysis in solution to about 10^-6 M in the cells.

[4] = test system: B16 cells (mouse melanoma); assay: Photosensitizer accumulation in drug-resistant versus sensitive B16 cells; assay type: cell-based
Description: (§1) The cells were treated with Rose Bengal acetate at doses between 5×10^-5 and 10^-7 M, and with 10^-5 M Photofrin®. The intracellular accumulation of photosensitizer was evaluated in terms of fluorescence intensity. Giving a value of 100 to the photosensitizer amount present in each sensitive cell line, the amount of photosensitizer retained in the corresponding resistant cell line is 100% and 85% for Photofrin and 170% and 120% for Rose Bengal, in IGROV and POGB respectively. A more evident difference of the accumulation capacity between Photofrin and Rose Bengal can be observed in the case of B16 cells, a line derived from mouse melanoma. In this case the amount of Photofrin® accumulated in resistant cells is about 65% of that in sensitive ones, while the amount of Rose Bengal is about 120%.

[5] = test system: lymphocytes and granulocytes; assay: Hydrolysis activity in white blood cells on smears; assay type: cell-based
[6] = test system: purified esterase enzyme of pig liver; assay: Enzyme hydrolysis by purified pig liver esterase, followed fluorometrically; assay type: biochemical; conditions: hydrolysis in solution, phosphate buffer 0.2 M pH 6.85, 20° C., esterase 25 U/ml; read-out: enzyme hydrolysis constant Km
Description: To the solution of Rose Bengal acetate 3×10^-5 M in phosphate buffer 0.2 M (pH 6.85) was added the purified esterase enzyme of pig liver (Sigma Chem, Co., GB) at the final concentration of 25 U/ml. The reaction was performed at room temperature (20° C.) and the formation of the product was measured fluorometrically (excitation 525 nm, emission 565 nm). In a second group of experiments, to the reaction solution was added human albumin (Sigma Chem. Co, GB) at the concentration of 0.1 mg/ml, better to simulate the conditions of hydrophobicity to be met in the cells. In these conditions, the appearance of the fluorescence was accelerated.
The kinetics of hydrolysis was followed by determining the intensity of fluorescence at 565 nm corresponding to the peak of emission of Rose Bengal. Examples of curves of hydrolysis kinetics are shown in FIG. 3 in which the curve (a) represents the intensity of fluorescence in time of a solution of Rose Bengal acetate subjected to hydrolysis in the presence of albumin with esterase, and the curve (b) represent the intensity of fluorescence of the solution of Rose Bengal acetate with albumin, in the absence of esterase, at the concentration of 3×10^-5 M.

[7] = test system: POGB cells (bronchial microcytoma); assay: Photosensitizer accumulation in drug-resistant versus sensitive POGB cells; assay type: cell-based, human; conditions: Rose Bengal acetate 5×10^-5 to 10^-7 M, Photofrin 10^-5 M, fluorescence intensity
Description: (§2) Tests were also performed on cell lines derived from human tumours: POGB, from bronchial microcytoma, and IGROV, from ovarian carcinoma. In particular, for each line a comparison was made between the cells sensitive and resistant to chemotherapeutic agents. […] Results related to Rose Bengal treatment were compared with those obtained with Photofrin®, a well-establishes photosensitizer.
as §1

rat glioma (C6) cells [8] = assay: Phototoxicity after irradiation at 540±5 nm, cell count 24 h later; assay type: cell-based; conditions: 2 mw/cm^2, up to 2.4 J, compared with Rose Bengal (FIG. 5)
Excerpt: The cells treated with Rose Bengal or with Rose Bengal acetate as described above were submitted to irradiation at 540±5 nm by a Xe 75 W lamp and an interference filter.
Irradiation was realised with a power of 2 mw/cm^2 for various times until the administration of a maximum dose of 2.4 J, in accordance with the protocols normally used in tests of phototoxicity. The irradiation was effected in HBSS buffer (Hank's Balanced Salt Solution, J. H. Hanks and R. E. Wallace, Proc. Natl. Exp. Biol. Med 71, 196, 1949) in the absence of the drug in the culture medium to avoid secondary effects. Twenty-four hours after irradiation the cells adhering to the slide on which they had been grown were counted. The expression of phototoxicity was defined as the ratio between the number of cells present after the treatment and those counted on the untreated controls. […] This effect relates directly to the quantity of fluorescent substance with photosensitisation activity produced by the enzyme activity, evaluated as fluorescence intensity at 580 nm (FIG. 4).

[9] = test system: IGROV cells (ovarian carcinoma); assay: Photosensitizer accumulation in drug-resistant versus sensitive IGROV cells; assay type: cell-based, human; conditions: Rose Bengal acetate 5×10^-5 to 10^-7 M, Photofrin 10^-5 M, fluorescence intensity
Description: as §2, §1

[10] = Rose Bengal in blood samples of treated mice; assay type: in vivo; conditions: Swiss mice treated with 8 mg/kg
Description: Considering the possible systemic use of Rose Bengal acetate, the effect was evaluated of the serum esterase activity on the hydrolysis kinetics of the fluorogenic substrate. The esterase activity of the blood can induce an extracellular hydrolysis of Rose Bengal acetate. The kinetics, however, of this hydrolysis is slow enough to permit the cellular compartment to accumulate and hydrolyse the Rose Bengal acetate according to the intracellular esterase activity. In any case the hydrolysed Rose Bengal is quickly eliminated from the blood.

Compound | ratio of intracellular photosensitizer concentration between normal and transformed cells ([1]; 2 h, 5 µM) | cell mortality (rat glioma (C6) cells [2]) | Km (rat glioma (C6) cells [3]) | amount accumulated in resistant cells relative to sensitive ones [4] | hydrolysis activity in lymphocytes, less than in granulocytes [5] | Km [6] | amount of photosensitizer retained in resistant cell line (sensitive line = 100) [7] | phototoxicity (cell survival) (rat glioma (C6) cells [8]) | amount of photosensitizer retained in resistant cell line (sensitive line = 100) [9] | Rose Bengal in the blood [10] | ratio of intracellular photosensitizer concentration between normal and transformed cells ([1]; 2×10^-5 M for 2 hours)
CC(=O)Oc1c(I)cc2c(-c3c(Cl)c(Cl)c(Cl)c(Cl)c3C(=O)O)c3cc(I)c(=O)c(I)c-3oc2c1I [Rose Bengal acetate] | about 16 | no significant cell mortality | ~1 µM | about 120% | 40% | ~1000 µM | 120% | strong phototoxic effect | 170% | do not present appreciable quantities | –
O=C(O)c1c(Cl)c(Cl)c(Cl)c(Cl)c1-c1c2cc(I)c(=O)c(I)c-2oc2c(I)c(O)c(I)cc12 [Rose Bengal, reference compound] | – | no significant cell mortality | – | – | – | – | – | – | – | – | –
Photofrin® [reference compound] | – | – | – | about 65% | – | – | 85% | – | 100% | – | about 8
CC(=O)Oc1ccc2c(c1)Oc1cc(OC(C)=O)ccc1C21OC(=O)c2ccccc21 [diacetate fluorescein, reference compound] | – | – | – | – | – | 5 µM | – | – | – | – | –
